Values belong to the compound of their own block, whether it stands above or below them.
Assay: solvent given as SMILES

Structure (SMILES): CN(C)c1ccc(/C=C2\CC/C(=C\c3ccc(C#N)cc3)C2=O)cc1
fluorescence lifetime (in C1CCOC1): 0.18 ns
fluorescence lifetime (in CC#N): 0.17 ns
fluorescence lifetime (in CC(C)=O): 0.23 ns
fluorescence lifetime (in CC(C)O): 0.21 ns
fluorescence lifetime (in CCCCO): 0.22 ns
fluorescence lifetime (in CCCCOC(C)=O): 1.01 ns
fluorescence lifetime (in CCCO): 0.18 ns
fluorescence lifetime (in CCO): 0.14 ns
fluorescence lifetime (in CCOC(=O)c1ccccc1): 1.24 ns
fluorescence lifetime (in CCOC(C)=O): 0.9 ns
fluorescence lifetime (in CCOCC): 0.89 ns
fluorescence lifetime (in CN(C)C=O): 0.18 ns
fluorescence lifetime (in CO): 0.13 ns
fluorescence lifetime (in CS(C)=O): 0.19 ns
fluorescence lifetime (in Cc1ccccc1): 0.56 ns
fluorescence lifetime (in ClC(Cl)(Cl)Cl): 0.17 ns
fluorescence lifetime (in ClC(Cl)Cl): 2.08 ns
fluorescence lifetime (in ClCCl): 1.29 ns
fluorescence lifetime (in Clc1ccccc1Cl): 2.18 ns
fluorescence lifetime (in O=C1CCCC1): 0.31 ns
fluorescence lifetime (in S=C=S): 0.28 ns
fluorescence lifetime (in c1ccccc1): 0.76 ns
fluorescence lifetime (in c1ccncc1): 0.41 ns

Structure (SMILES): O=C(O)CCCCCn1c2ccccc2c(=O)c2cc(S(=O)(=O)O)ccc21
fluorescence lifetime (in O): 13 ns

Structure (SMILES): Cc1ccc2ccc3cccc4ccc1c2c34
fluorescence lifetime (in CCCCCC): 67.8 ns
fluorescence lifetime (in CO): 132 ns
fluorescence lifetime (in ClCCl): 79.1 ns

Structure (SMILES): CC[n+]1c(C=C2C(=O)C(C=C3Sc4cc(Cl)ccc4N3C)=C2[O-])[se]c2ccccc21
fluorescence lifetime (in CO): 0.83 ns
fluorescence lifetime (in ClC(Cl)Cl): 4.41 ns

Structure (SMILES): CN(C)c1ccc2ccc3oc(=O)c(-c4ccccc4)nc3c2c1
fluorescence lifetime (in c1ccccc1): 7.2 ns

Structure (SMILES): CCCCC#Cc1cccc2cc(CCCC)c3cc(-c4cc[b-]5c(c4)c(CCCC)cc4cccc(C#CCCCC)[n+]54)cc[b-]3[n+]12
fluorescence lifetime (in C1CCCCC1): 4 ns

Structure (SMILES): F[B-]1(F)Oc2ccccc2-c2cc(-n3c4ccccc4c4ccccc43)cc[n+]21
fluorescence lifetime (in O=P(c1ccccc1)(c1ccccc1)c1ccccc1Oc1ccccc1P(=O)(c1ccccc1)c1ccccc1): 6.7 ns

Structure (SMILES): Cc1ccc(C2=Cc3c4ccccc4cc[n+]3[B-](F)(F)O2)cc1
fluorescence lifetime (in ClC(Cl)Cl): 0.377 ns

Structure (SMILES): O=S1(=O)c2ccccc2C2(c3cc(-c4ccc(N(c5ccccc5)c5ccccc5)cc4)ccc3-c3ccc(-c4ccc(N(c5ccccc5)c5ccccc5)cc4)cc32)c2ccccc21
fluorescence lifetime (in ClCCl): 1.5 ns

Structure (SMILES): Cc1ccc(C2=C3C=C(I)C=[N+]3[B-](F)(F)n3cccc32)cc1
fluorescence lifetime (in C1CCCCC1): 0.184 ns
fluorescence lifetime (in CC#N): 0.06 ns
fluorescence lifetime (in CCO): 0.07 ns
fluorescence lifetime (in CCOC(C)=O): 0.082 ns
fluorescence lifetime (in CO): 0.063 ns
fluorescence lifetime (in OCC(F)(F)F): 0.069 ns

Structure (SMILES): O=C([O-])COc1cc(NC(=O)c2ccc(-c3c4cc(Cl)c(=O)cc-4oc4cc(O)c(Cl)cc34)c(C(=O)[O-])c2)ccc1N(CC(=O)[O-])CC(=O)[O-]
fluorescence lifetime (in O): 1.21 ns

Structure (SMILES): CN(C)c1ccc(-c2nc3c(c4c2-c2ccc(C#N)cc2CC4)-c2ccc(C#N)cc2CC3)cc1
fluorescence lifetime (in C1CCOC1): 2.93 ns
fluorescence lifetime (in CC#N): 3.56 ns
fluorescence lifetime (in CCCCCC): 0.6 ns
fluorescence lifetime (in CCOC(C)=O): 2.55 ns
fluorescence lifetime (in CO): 1.13 ns
fluorescence lifetime (in CS(C)=O): 1.79 ns
fluorescence lifetime (in Cc1ccccc1): 1.4 ns
fluorescence lifetime (in ClCCl): 1.68 ns

Structure (SMILES): c1ccc(-c2nn(-c3ccccc3)c3nc4ccc(N(c5ccccc5)c5cccc6ccccc56)cc4cc23)cc1
fluorescence lifetime (in C1CCCCC1): 11.3 ns
fluorescence lifetime (in C1CCOC1): 15.5 ns
fluorescence lifetime (in CC#N): 16.3 ns
fluorescence lifetime (in CC(C)=O): 19.3 ns
fluorescence lifetime (in CCCCCl): 14.9 ns
fluorescence lifetime (in CCCCOCCCC): 12.9 ns
fluorescence lifetime (in CN(C)C=O): 15.8 ns

Structure (SMILES): C=CC(=O)Oc1ccc2cc(C=C)c(=O)oc2c1
fluorescence lifetime (in CC#N): 2.81 ns

The next lines start with the values.

fluorescence lifetime (in CC#N): 5.1 ns
Structure (SMILES): CC1=CC(/C=C/c2ccc([N+](C)(C)C)cc2)=[N+]2C1=C(c1ccc(I)cc1)c1c(C)cc(/C=C/c3ccc([N+](C)(C)C)cc3)n1[B-]2(F)F

fluorescence lifetime (in C1CCCCC1): 0.8 ns
fluorescence lifetime (in CC#N): 1.2 ns
fluorescence lifetime (in CO): 1.1 ns
fluorescence lifetime (in ClCCl): 1.1 ns
Structure (SMILES): C(C#Cc1ccc2ccc3cccc4ccc1c2c34)#Cc1cccc2ccccc12

fluorescence lifetime (in ClCCl): 1.66 ns
Structure (SMILES): Cn1c(=O)cc(C(=O)c2ccccc2)c2sc(-c3ccc(C(F)(F)F)cc3)cc21

fluorescence lifetime (in ClCCl): 17.1 ns
Structure (SMILES): CCN(CC)c1ccc2c(c1)oc(=O)c1cc3c(C)nn(-c4ccccc4)c3nc12

fluorescence lifetime (in CCO): 5.19 ns
fluorescence lifetime (in ClC(Cl)Cl): 3.16 ns
fluorescence lifetime (in ClCCl): 5.8 ns
Structure (SMILES): CCN(CC)c1ccc2c(-c3ccccc3C(=O)O)c3c([o+]c2c1)/C(=C/Nc1ccccc1)CCC3

fluorescence lifetime (in C1CCCCC1): 4.3 ns
Structure (SMILES): CCCCc1cc2cccc[n+]2[b-]2c(-c3cccc4[b-]3[n+]3ccccc3cc4CCCC)cccc21

fluorescence lifetime (in C1CCOC1): 0.42 ns
Structure (SMILES): O=C1/C(=C2\Nc3cc4ccc5cccc6ccc(c3C2=O)c4c56)Nc2cc3ccc4cccc5ccc(c21)c3c45
